Consider 28 compounds from patent publication US20250186321A1, “FORMULATION USING AMINO ACID AND CARBOXYLIC ACID, ORGANIC SALT, AND COMPOSITION COMPRISING SAME AND USE THEREOF” (MIYOSHI OIL & FAT CO., LTD., priority 2021, published 2025).

The series in a line: Appearance of formulation (state at 25° C.). Format: physicochemical. The method, then: Formulations 1 to 427 shown in Tables 1A to 1D were prepared by the above-described method using the components (A) and (B) at the compounding molar ratios shown in the tables, and their states at 25° C. were observed.
Setting [1] is: Tables 1C-1 to 1D, compounding molar ratio (Component (A):Component (B)) 1:1.

Turning to `N[C@@H](CC(=O)O)C(=O)O.O=C(O)CCC(=O)O` [Formulation 402], the “state at 25° C.” value under setting [1] is listed as “Solid”.
Same read-out and setting: under `N[C@@H](CC(=O)O)C(=O)O.N[C@@H](CCC(=O)O)C(=O)O` [Formulation 403] stands “Solid”; under `N[C@@H](CC(=O)O)C(=O)O.O=C(O)/C=C/C(=O)O` [Formulation 404], “Solid”.
On the same count and under the same terms, for `NC(CC(=O)O)C(=O)O.O=C(O)CC(O)C(=O)O` (stereo not shown) [Formulation 405] the value was “Solid”; for `N[C@@H](CC(=O)O)C(=O)O.O=C(O)CC(O)(CC(=O)O)C(=O)O` [Formulation 406], “Solid”; for `N[C@@H](CC(=O)O)C(=O)O.O=C(O)C(O)C(O)C(=O)O` (stereo not shown) [Formulation 407], “Solid”.
On the same count and under the same terms, under `N[C@@H](CC(=O)O)C(=O)O.O=C(O)c1ccccc1` [Formulation 408] stands “Solid”.
Turning to `N[C@@H](CC(=O)O)C(=O)O.O=C1O[C@H]([C@@H](O)CO)C(O)=C1O` [Formulation 409], the “state at 25° C.” value under setting [1] is recorded as “Solid”.
On the same count and under the same terms, under `N[C@@H](CC(=O)O)C(=O)O.O=C1O[C@H]([C@H](O)CO)C(O)=C1O` [Formulation 410] stands “Solid”; under `N[C@@H](CCC(=O)O)C(=O)O.O=CO` [Formulation 411], “Solid”; under `CC(=O)O.N[C@@H](CCC(=O)O)C(=O)O` [Formulation 412], “Solid”.
For `CCC(=O)O.N[C@@H](CCC(=O)O)C(=O)O` [Formulation 413], the “state at 25° C.” value under setting [1] is on record as “Solid”.
The same measure, in the same setting: for `CCCCCC(=O)O.N[C@@H](CCC(=O)O)C(=O)O` [Formulation 414] the value was “Solid”; for `CCCC(=O)O.N[C@@H](CCC(=O)O)C(=O)O` [Formulation 415], “Solid”; for `N[C@@H](CCC(=O)O)C(=O)O.O=C(O)C(O)C(O)C(O)C(O)CO` (stereo not shown) [Formulation 416], “Solid”.
As for `CC(O)C(=O)O.N[C@@H](CCC(=O)O)C(=O)O` [Formulation 417], under setting [1], the “state at 25° C.” value is “Solid”.
Still for that read-out and setting: for `N[C@@H](CCC(=O)O)C(=O)O.O=C(O)CCCCC(=O)O` [Formulation 418] the value was “Solid”.
The same measure, in the same setting: for `N[C@@H](CCC(=O)O)C(=O)O.O=C(O)CCC(=O)O` [Formulation 419] the value was “Solid”; for `N[C@@H](CCC(=O)O)C(=O)O.N[C@@H](CCC(=O)O)C(=O)O` [Formulation 420], “Solid”; for `N[C@@H](CCC(=O)O)C(=O)O.O=C(O)/C=C/C(=O)O` [Formulation 421], “Solid”.
Same read-out and setting: under `NC(CCC(=O)O)C(=O)O.O=C(O)CC(O)C(=O)O` (stereo not shown) [Formulation 422] stands “Solid”.
As for `N[C@@H](CCC(=O)O)C(=O)O.O=C(O)CC(O)(CC(=O)O)C(=O)O` [Formulation 423], the “state at 25° C.” value under setting [1] is recorded as “Solid”.
On the same count and under the same terms, under `N[C@@H](CCC(=O)O)C(=O)O.O=C(O)C(O)C(O)C(=O)O` [Formulation 424] stands “Solid”; under `N[C@@H](CCC(=O)O)C(=O)O.O=C(O)c1ccccc1` [Formulation 425], “Solid”; under `N[C@@H](CCC(=O)O)C(=O)O.O=C1O[C@H]([C@@H](O)CO)C(O)=C1O` [Formulation 426], “Solid”.
Still for that read-out and setting: under `NC(CCC(=O)O)C(=O)O.O=C1OC(C(O)CO)C(O)=C1O` (stereo not shown) [Formulation 427] stands “Solid”.
Turning to `Cl.O=C(O)[C@@H]1CCCN1` [Formulation 437], for the setting “25° C.”, the “state at 25° C.” value is on record as “Solid”.
On the same count and under the same terms, for `O` [Formulation 438] the value was “Liquid”.
